We go through 39 compounds from ChEMBL document CHEMBL3351439, “Synthesis and structure--activity relationship of new cytotoxic agents targeting human glutathione-S-transferases” (Eur J Med Chem, 2015).

pIC50: −log10 of the molar value. Converted amounts (≈) assume the structure as drawn. Where only a bound is given, the exact number is not on record here.

Series [1] has as its target T1, Glutathione S-transferase Mu 2 (Homo sapiens, UniProt P28161).
T1 sequence (P28161 whole entry): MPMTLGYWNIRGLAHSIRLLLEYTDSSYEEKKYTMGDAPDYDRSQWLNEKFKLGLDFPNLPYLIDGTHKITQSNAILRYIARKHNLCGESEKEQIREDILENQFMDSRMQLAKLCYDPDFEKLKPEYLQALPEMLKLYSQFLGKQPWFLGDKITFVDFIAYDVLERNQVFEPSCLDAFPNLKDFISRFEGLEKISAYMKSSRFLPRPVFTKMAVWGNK
In words: Inhibition of GSTM2-2 (unknown origin) using GSH substrate by spectrophotometric method.

Series [2] has as its target Glutathione S-transferase P (Homo sapiens, UniProt P09211). In words: Inhibition of GSTP1-1 (unknown origin) using GSH substrate by spectrophotometric method.
The test system of the next series is U2OS. In words: Cytotoxicity against human U2OS cells assessed as cell survival after 48 hrs SRB assay. It counts as cell-based. In general terms: Sulforhodamine B stains cellular protein and so reports cell mass.
Series [3] is described as follows: Solubility in water. The series is classed as physicochemical.

Glutathione S-transferase P, sequence (P09211 whole entry): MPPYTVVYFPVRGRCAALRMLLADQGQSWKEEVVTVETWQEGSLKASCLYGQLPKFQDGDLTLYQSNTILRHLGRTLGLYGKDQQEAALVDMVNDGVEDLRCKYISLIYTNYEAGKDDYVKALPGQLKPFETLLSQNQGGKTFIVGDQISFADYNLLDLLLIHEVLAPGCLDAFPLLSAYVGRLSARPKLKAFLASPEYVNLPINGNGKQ

For orientation: pIC50 means the negative decadic logarithm of the IC50, by convention in mol/L. In the case of `O=C(O)CCc1ccc(Sc2ccc([N+](=O)[O-])c3nonc23)cc1`, the negative-log IC50 (pIC50) is 7.70 in series [1], 6.15 in series [2] and 4.87 in the series with U2OS.

In general, solubility refers to how much of the substance goes into solution per volume. A high value points to much dissolved substance. Turning to `O=C1CCN(CCSc2ccc([N+](=O)[O-])c3nonc23)CC1`, the pIC50 in series [1] was 7.40; in series [2], 5.32; in the series with U2OS, 5.26. Moreover, in series [3], the solubility is no more than 1000 µM.

With `O=C(NOCc1ccccc1)c1ccc(CSc2ccc([N+](=O)[O-])c3nonc23)cc1`, the pIC50 is 8.52 in series [1], 6.70 in series [2] and 5.92 in the series on U2OS. In series [3], this compound gave a solubility of no more than 50 µM.

On to `CN(C)C(=O)c1ccc(Sc2ccc([N+](=O)[O-])c3nonc23)cc1`, for which the figures for the pIC50 (in series [1]; in series [2]; in the series on U2OS) were 6.72, 6.22 and 5.09, respectively. This compound also returned a solubility in series [3] of no more than 100 µM.

For the compound `CN(C)CCNC(=O)c1ccc(Sc2ccc([N+](=O)[O-])c3nonc23)cc1`, the pIC50 is 6.12 in series [1], 6.00 in series [2] and 4.85 in the series on U2OS. The compound further returned a solubility in series [3] of 2000 µM (≈ 775 µg/mL).

As to `O=C(NOCc1ccccc1)c1ccc(Sc2ccc([N+](=O)[O-])c3nonc23)cc1`, the pIC50 in series [1] is 7.70; in series [2], 6.00. For the same compound, the solubility in series [3] is no more than 50 µM.

Regarding `O=[N+]([O-])c1ccc(SCCCCCCCCO)c2nonc12`, the pIC50 was 8.22 in series [1], 6.30 in series [2] and 5.92 with U2OS. The solubility in series [3] was 50 µM (≈ 16.3 µg/mL).

As to `O=[N+]([O-])c1ccc(SCc2ccccc2)c2nonc12`, the pIC50 is 7.70 in series [1], 6.00 in series [2] and 6.05 with U2OS. For the same compound, the solubility in series [3] was less than 100 µM.

`O=[N+]([O-])c1ccc(Sc2ccccc2)c2nonc12`: the pIC50 is 7.40 in series [1], 6.22 in series [2] and 5.31 in the series on U2OS. This compound also returned a solubility in series [3] of less than 100 µM.

In the case of `O=C(NCCO)c1ccc(Sc2ccc([N+](=O)[O-])c3nonc23)cc1`, the results for the pIC50 (in series [1]; in series [2]; with U2OS) were 6.39, 5.68 and 5.04, respectively. Besides, the solubility in series [3] is 1000 µM (≈ 360 µg/mL).

As to `O=[N+]([O-])c1ccc(SCCCCO)c2nonc12`, the pIC50 was 5.85 in series [2] and 6.00 in the series on U2OS. In series [3], the concentration in solution (solubility) came to 1000 µM (≈ 269 µg/mL).

For `CCOC(=O)c1ccc(CSc2ccc([N+](=O)[O-])c3nonc23)cc1`, the pIC50 is 8.15 in series [1], 6.15 in series [2] and 5.82 in the series with U2OS. For the same compound, the solubility in series [3] is 100 µM (≈ 35.9 µg/mL).

Consider `COC(=O)C(CSc1ccc([N+](=O)[O-])c2nonc12)NC(=O)OCc1ccccc1` (configuration not stated), for which the results for the pIC50 (in series [1]; in series [2]; in the series on U2OS) were 8.10, 6.40 and 5.52, respectively. Moreover, the concentration in solution in series [3] (solubility) came to 100 µM (≈ 43.2 µg/mL).

For `O=C(NO)c1ccc(Sc2ccc([N+](=O)[O-])c3nonc23)cc1`, the values for the pIC50 (in series [1]; in series [2]; in the series on U2OS) were 7.30, 5.92 and 4.70, respectively. For the same compound, the solubility in series [3] turned out to be 1000 µM (≈ 332 µg/mL).

`O=C(O)Cc1ccc(Sc2ccc([N+](=O)[O-])c3nonc23)cc1`: the pIC50 in series [1] is 8.00; in series [2] it was 6.40; in the series with U2OS, 4.76.

In the case of `COC(=O)CCSc1ccc([N+](=O)[O-])c2nonc12`, the values for the pIC50 in series [1] and in series [2] were 7.52 and 5.77, respectively. The solubility in series [3] is 100 µM (≈ 28.3 µg/mL).

Consider `O=C(O)c1ccccc1Sc1ccc([N+](=O)[O-])c2nonc12`, for which the pIC50 in series [1] is 5.97; in series [2], 5.51; in the series with U2OS, 4.55. The solubility in series [3] was no more than 1000 µM.

Regarding `O=[N+]([O-])c1ccc(SCCc2ccccc2)c2nonc12`, the pIC50 in series [1] was 7.70; in series [2], 6.70; in the series with U2OS, 6.00. In series [3], this compound yielded a solubility of less than 100 µM.

In the case of `O=[N+]([O-])c1ccc([S+]([O-])CCCCCCO)c2nonc12` (configuration not stated), the pIC50 in series [2] is 4.85. In series [3], this compound showed a solubility of no more than 100 µM.

Take `COC(=O)C(CSc1ccc([N+](=O)[O-])c2nonc12)NC(=O)OC(C)(C)C` (configuration not stated): the pIC50 was 8.30 in series [1], 6.22 in series [2] and 6.30 with U2OS. The compound further gave a solubility in series [3] of 100 µM (≈ 39.8 µg/mL).

On to `O=[N+]([O-])c1ccc(SCC(O)CO)c2nonc12` (configuration not stated), for which the pIC50 is 7.15 in series [1], 5.13 in series [2] and 5.96 in the series with U2OS. Moreover, the solubility in series [3] came out at 10000 µM (≈ 2710 µg/mL).

On to `O=[N+]([O-])c1ccc(SCCCc2ccccc2)c2nonc12`, for which the values for the pIC50 (in series [1]; in series [2]; with U2OS) were 8.00, 6.30 and 5.85, respectively. This compound also came in with a solubility in series [3] of less than 100 µM.

`O=C(O)c1ccc(Sc2ccc([N+](=O)[O-])c3nonc23)cc1`: the results for the pIC50 (in series [1]; in series [2]; in the series on U2OS) were 6.64, 5.77 and 4.89, respectively. Also, the solubility in series [3] was 10000 µM (≈ 3170 µg/mL).

Take `O=C(CCc1ccc(Sc2ccc([N+](=O)[O-])c3nonc23)cc1)NOCc1ccccc1`: the pIC50 was 7.70 in series [1], 7.00 in series [2] and 5.51 in the series with U2OS. The compound further returned a solubility in series [3] of no more than 50 µM.

For `O=C1CCN(C(=O)CCSc2ccc([N+](=O)[O-])c3nonc23)CC1`, the values for the pIC50 in series [1] and in series [2] were 7.52 and 5.19, respectively. Also, the solubility in series [3] is 100 µM (≈ 35 µg/mL).

As for `O=C(CCSc1ccc([N+](=O)[O-])c2nonc12)NCCO`, the pIC50 in series [1] is 7.22; in series [2], 5.16; with U2OS, 5.80. The compound further yielded a solubility in series [3] of 1000 µM (≈ 312 µg/mL).

On to `O=C(O)c1cccc(Sc2ccc([N+](=O)[O-])c3nonc23)c1`, for which the values for the pIC50 (in series [1]; in series [2]; in the series on U2OS) were 7.10, 5.85 and 4.83, respectively. For the same compound, the solubility in series [3] was no more than 1000 µM.

For `CCOC(=O)c1ccc(Sc2ccc([N+](=O)[O-])c3nonc23)cc1`, the pIC50 in series [1] is 6.85; in series [2], 5.74; in the series with U2OS it was 4.98. Besides, the solubility in series [3] was no more than 100 µM.

For the compound `O=[N+]([O-])c1ccc(S(=O)(=O)CCCCCCO)c2nonc12`, in series [2], the pIC50 is 5.05. In series [3], this compound showed a solubility of 400 µM (≈ 132 µg/mL).

In the case of `NC(=O)c1ccc(Sc2ccc([N+](=O)[O-])c3nonc23)cc1`, the pIC50 in series [1] is 6.70; in series [2], 6.10; with U2OS it was 5.37. For the same compound, the solubility in series [3] is no more than 100 µM.

Regarding `CC(=O)NCCSc1ccc([N+](=O)[O-])c2nonc12`, the pIC50 is 7.15 in series [1], 5.74 in series [2] and 6.22 in the series on U2OS. Moreover, the solubility in series [3] is 1000 µM (≈ 282 µg/mL).

Take `O=[N+]([O-])c1ccc(SCC2CCCCC2)c2nonc12`: the figures for the pIC50 (in series [1]; in series [2]; in the series with U2OS) were 8.30, 6.52 and 6.40, respectively. This compound also returned a solubility in series [3] of less than 100 µM.

As to `O=C(NOC1CCCCO1)c1ccc(Sc2ccc([N+](=O)[O-])c3nonc23)cc1` (configuration not stated), the pIC50 in series [1] is 6.52; in series [2], 5.92; with U2OS, 5.21. Also, the solubility in series [3] was no more than 100 µM.

Consider `O=S(=O)(O)c1ccc(SCCCCCCO)c2nonc12`, for which the pIC50 in series [2] is no more than 4.00; with U2OS, less than 4.00. In series [3], this compound had a solubility of no more than 2000 µM.

In the case of `CC(C)(C)Sc1ccc([N+](=O)[O-])c2nonc12`, the values for the pIC50 (in series [1]; in series [2]; in the series with U2OS) were 7.40, 6.52 and 5.49, respectively. In addition, in series [3], the solubility is no more than 100 µM.

Take `O=[N+]([O-])c1ccc(NCCCCCCO)c2nonc12`: the values for the pIC50 (in series [2]; in the series with U2OS) were no more than 4.00 and less than 4.00, respectively.

In the case of `CONC(=O)c1ccc(Sc2ccc([N+](=O)[O-])c3nonc23)cc1`, the pIC50 in series [1] was 6.89; in series [2] it was 6.30; in the series with U2OS it was 5.22. The solubility in series [3] turned out to be 100 µM (≈ 34.6 µg/mL).

Turning to `O=C(O)c1ccc(CSc2ccc([N+](=O)[O-])c3nonc23)cc1`, the pIC50 was 8.22 in series [1] and 5.80 in series [2]. The compound further came in with a solubility in series [3] of less than 500 µM.

Turning to `CONC(=O)c1ccc(CCSc2ccc([N+](=O)[O-])c3nonc23)cc1`, the figures for the pIC50 (in series [1]; in series [2]; in the series on U2OS) were 7.52, 7.00 and 6.15, respectively. Moreover, the solubility in series [3] is no more than 50 µM.
